In general, EC50 refers to the concentration at which the effect is half-maximal. Read a low EC50 as a more potent agent.

Data on 16 molecules can be found in US20130296358A1, “3-SPIROCYCLIC PIPERIDINE DERIVATIVES AS GHRELIN RECEPTOR AGONISTS” (priority 2012, published 2013).

SMILES strings stand for the structures.

Series [1] concerns the target T1, human recombinant ghrelin receptor (GHS-R1a) (Homo sapiens, UniProt Q92847).
T1 construct: host or cells: CHO-K1
Description: Calcium assay, CHO-K1 cells expressing hGHS-R1a (Fluo-4). Format: cell-based. The note with it: for Emax: CHO-K1, relative to the Emax induced by MK-0677 (defined as 100%), read-out: hGHS-R1a Ca assay Emax/%. The procedure: (§1) Chinese hamster ovary (CHO-K1) cells expressing human recombinant ghrelin receptor (GHS-R1a) were purchased from Euroscreen (ES-410-C) and propagated in UltraCHO medium containing glutamine and supplemented with 1% heat inactivated foetal calf serum (FCS), 100 U/ml penicillin, 100 mg/l streptomycin and 0.8 g/l geneticin. Cells were sub-cultured twice a week with a 1:10 dilution. For passaging, cells were washed with 1× DPBS without calcium and magnesium, trypsinised for 10 min with 0.05% Trypsin/EDTA and resuspended in cell culture medium.
Cells were diluted to achieve 1×10^6 cells/ml, seeded in 384-well black clear bottom CellBind plates at 25000 cells/well (25u1) and incubated overnight at 37° C./5% CO2 Cells were expected to be 85-90% confluent on the day of assay (checked under the microscope) to ensure a high quality assay. Media was manually removed and 40 μl of loading solution containing probenecid and Fluo-4 no wash dye (a calcium indicator, Invitrogen F36206) were added to each well. After 30 min at 37° C. followed by another 30 min at RT, cpds were added to the wells. To generate a dose response up to 30 μM, 10 mM compound stocks in 100% (v/v) DMSO were firstly diluted in 50% (v/v) DMSO. Then, serial dilutions aimed at a full logarithmic dose responses (8 point) were performed in assay buffer [1×HBSS, 20 mM Hepes, 0.1% (w/v) BSA] to give 2.5% (v/v) DMSO and 5× final compound concentrations. The final assay DMSO concentration was 0.5% (v/v). After loading the cells with Fluo-4 containing solution, plates were read on a CeIlLux instrument (Perkin Elmer). A protocol set up to add 10 μl of 5× compound and to read the plate for 60sec after adding the compound at 17th sec was used. Fluorescence excitation took place at 494 nm and emission at 516 nm. EC50 values of agonists were calculated by fitting the percent stimulation over background [(Max-Min)/Min] using the nonlinear logistic function of the Prism 5 software (GraphPad, USA).

Series [2] addresses T1, human recombinant ghrelin receptor (GHS-R1a). Briefly: cAMP assay (HTRF), CHO-hGHS-R1a cells. Format: cell-based. Conditions: relative to the ghrelin response (defined as 100%). The procedure:
as §1
The Homogeneous Time-Resolved Fluorescence (HTRF) cAMP dynamic 2 kit (Cisbio International, France) was used as follows. CHO-hGHS—R1a or CHO-rGHS—R1a cells were seeded in a volume of 25 μl culture media at 10,000 cells/well (400,000 cells/ml) in Greiner white 384-well high volume plates and incubated overnight (18-24 h) at 37° C./5% CO2. Then, media was removed and 6 μl assay buffer [HBSS, 10 mM Hepes, 0.2% (w/v) BSA, 1.7 mM IBMX, (pH7.4)] were added to the wells. To generate a dose response up to 30 μM, 10 mM compound stocks in 100% (v/v) DMSO were firstly diluted in 50% (v/v) DMSO followed by a further dilution into assay buffer. Then, 4 μl of 2.5× compound (dose response as 9 point log serial dilution in assay buffer from 30 μM as maximum concentration) were added to each well achieving a final DMSO assay concentration of 0.8% (v/v). 0.1 μM forskolin was added as positive control. After 30 min (rGHS—R1a cell line) or 60 min (hGHS—R1a cell line) incubation at 37° C./5% CO2, 5 μl of cAMP-d2 and 5 μl of anti-cAMP antibody-cryptate, (both made in lysis buffer), were added to the plate followed by 1 h incubation at RT. During this time, cAMP produced by the cells competed with cAMP-d2 for the anti-cAMP antibody-cryptate molecule. Then, the plate was read on the Pherastar instrument (BMG, Germany) at two different emission wavelengths ([…]). Increasing levels of endogenous cAMP produced by cells could be followed by a decrease of FRET fluorescent signal and viceversa. Values represented by a change in arbitrary fluorescence ratios (665/620) were converted into cAMP concentrations by using a standard curve, the reagents for which were supplied with the kit. EC50 values of agonists were calculated using the nonlinear logistic function of the Prism 5 software (GraphPad, USA). Emax were expressed as relative values of the ghrelin response, which was defined as 100%.

For series [3], the system named is rat fundus. Briefly: Rat fundus contractility assay (EFS-induced contraction of muscle strips). Conditions: for EC50: increase of EFS-induced contraction, mean of preparations from at least 3 animals; for Emax / Emax/%: relative to the response to ghrelin (100 nM), defined as 100%. How it is done: Male Sprague Dawley rats (180-250 g) were culled by cervical dislocation and the fundus was removed. Each fundus was placed on a Krebs Henseleit (KH) buffer soaked dissection dish and cut along the long curvature to form a flattened sheet that was pinned in each corner. Four adjacent longitudinal strips (10×3 mm) were cut and the mucosa removed by sharp dissection. Each muscle strip was mounted in a 10 ml organ bath containing oxygenated KH at 37° C. Each strip was connected to an isometric force transducer, calibrated initially using a 5 g weight. The signal (g tension) was amplified and responses recorded by a Powerlab data capture system, connected to a computer running Labchart software (version 5.0). Tissues were placed under 1 g tension for an equilibration period of 30 min or until the baseline tension had stabilised. Carbachol (CCh, 100 nM) was then administered to establish the maximum contractile response of each preparation. Tissues were washed thoroughly and left for 30 min to re-equilibrate. Next, the muscle strips underwent electrical field stimulation (EFS). Maximal EFS pulse trains of 12V, 5 Hz, 0.1 msec pulse width, for 2 sec every 60 sec were applied until consistent electrically-stimulated phasic contractions were recorded. The voltage was then reduced in 1V increments until a consistent submaximal (EC50-75) EFS response was observed. Ghrelin (100 nM) was administered and left until a maximum response was obtained. Tissues were then washed thoroughly and left for 30 min. Once the EFS-induced contraction had re-stabilised, cumulative additions (10 nM-10 μM) of each test compound were administered. Individual responses were calculated by determining the peak of the EFS-induced contraction minus the baseline. […] The mean EC50 value for compounds was generated from data obtained on stomach preparations from at least 3 different animals.

Series [4] in a line: Aqueous solubility of crystalline L-malate salt forms versus free base. It counts as physicochemical. Conditions: compared to the free base amorphous form.

T1 sequence (Q92847 whole entry): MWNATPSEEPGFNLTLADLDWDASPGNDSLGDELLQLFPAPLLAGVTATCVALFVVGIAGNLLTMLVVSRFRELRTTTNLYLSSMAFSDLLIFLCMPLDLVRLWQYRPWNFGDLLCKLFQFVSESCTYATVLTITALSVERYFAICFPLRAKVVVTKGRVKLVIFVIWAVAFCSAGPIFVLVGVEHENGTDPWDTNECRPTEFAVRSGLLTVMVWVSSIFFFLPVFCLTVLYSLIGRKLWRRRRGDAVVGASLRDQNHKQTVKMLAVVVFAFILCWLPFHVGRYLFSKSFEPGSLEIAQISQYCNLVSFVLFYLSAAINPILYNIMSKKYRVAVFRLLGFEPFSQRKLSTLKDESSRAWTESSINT

Consider `Cc1ccc(COC[C@@H](NC(=O)C(C)(C)N)C(=O)N2CCCC3(C2)C(=O)N(C)CC3c2ccc(F)cc2)cc1` (single isomer, unassigned) [Example 1.29], for which the Emax amounted to 102% in series [1], 243% in series [2] and 100% in series [3] (Rattus norvegicus). In series [3] (Rattus norvegicus), a half-maximal effect (EC50) was put at 48 nM.

Turning to `CC(C)N1CC(c2ccc(F)cc2)C2(CCCN(C(=O)[C@@H](Cc3cn(C)c4ccccc34)NC(=O)C(C)(C)N)C2)C1=O` (single isomer, unassigned) [Example 1.15], the figures for the Emax in series [1], in series [2] and in series [3] (Rattus norvegicus) were 112%, 331% and 123%, respectively. In series [3] (Rattus norvegicus), this molecule showed a concentration for a half-maximal effect (EC50) of 36 nM.

With `CN1C[C@@H](c2ccc(F)cc2)[C@@]2(CCCN(C(=O)[C@@H](COCc3ccccc3)NC(=O)C(C)(C)N)C2)C1=O` [Example 1.2, 2-Amino-N-((2R)-3-(benzyloxy)-1-((4S,5R)-4-(4-fluorophenyl)-2-methyl-1-oxo-2,7-diazaspiro[4.5]decan-7-yl)-1-oxopropan-2-yl)-2-methylpropanamide], the values for the Emax in series [1], in series [2] and in series [3] (Rattus norvegicus) were 89%, 197% and 100%, respectively. The half-maximal effective concentration (EC50) in series [3] (Rattus norvegicus) was found to be 7.5 nM.

`CN1CC(c2ccccc2)C2(CCCN(C(=O)[C@@H](CCCc3ccccc3)NC(=O)C(C)(C)N)C2)C1=O` (single isomer, unassigned) [Example 1.32]: the Emax worked out at 103% in series [1] and 176% in series [2]. In addition, the response in series [3] was half-maximal at 19 nM (EC50). In series [3], this molecule showed an Emax/% of 109%.

Consider `CN1C[C@H](c2ccccc2)[C@]2(CCCN(C(=O)[C@@H](COCc3ccccc3)NC(=O)C(C)(C)N)C2)C1=O` (single isomer, unassigned) [Example 1.0(i)], for which the Emax was found to be 97% in series [1], 130% in series [2] and 104% in series [3] (Rattus norvegicus). This molecule also yielded a concentration for a half-maximal effect (EC50) in series [3] (Rattus norvegicus) of 1700 nM.

On to `CN1CC(c2ccc(F)cc2)C2(CCCN(C(=O)[C@@H](Cc3c[nH]c4ccccc34)NC(=O)C(C)(C)N)C2)C1=O` (single isomer, unassigned) [Example 1.11], for which the values for the Emax in series [1], in series [2] and in series [3] (Rattus norvegicus) were 102%, 289% and 99%, respectively. Moreover, the EC50 in series [3] (Rattus norvegicus) stood at 24 nM.

For the molecule `CNC(C)(C)C(=O)N[C@H](COCc1ccccc1)C(=O)N1CCCC2(C1)C(=O)N(C)CC2c1ccccc1` (single isomer, unassigned) [Example 1.17], the Emax in series [1] turned out to be 107%; in series [2], 124%; in series [3] (Rattus norvegicus), 113%. This molecule gave an EC50 in series [3] (Rattus norvegicus) of 137 nM.

Take `CN1CC(c2ccccc2)C2(CCCN(C(=O)[C@@H](COCc3ccccc3)NC(=O)C(C)(C)N)C2)C1=O` (single isomer, unassigned) [Example 1.21]: the “hGHS-R1a Ca assay Emax/%” value in series [1] (relative to the Emax induced by MK-0677 (defined as 100%)) stood at 105%. For the same molecule, the “hGHS-R1a cAMP assay Emax/%” value in series [2] worked out at 122%. Besides, in series [3], the EC50 worked out at 84 nM and the Emax/% was 81%.

Consider `C[C@H](OCc1ccccc1)[C@@H](NC(=O)C(C)(C)N)C(=O)N1CCCC2(C1)C(=O)N(C)CC2c1ccccc1` (single isomer, unassigned) [Example 1.34], for which the Emax in series [1] is 107%; in series [2] it was 168%; in series [3] (Rattus norvegicus), 115%. This molecule also had a concentration for a half-maximal effect (EC50) in series [3] (Rattus norvegicus) of 68 nM.

As to `CN1C[C@@H](c2ccccc2)[C@@]2(CCCN(C(=O)[C@@H](COCc3ccccc3)NC(=O)C(C)(C)N)C2)C1=O.O=C(O)C[C@H](O)C(=O)O` [2-Amino-N—[(R)-1-benzyloxymethyl-2-((4S,5R)-2-methyl-1-oxo-4-phenyl-2,7-diaza-spiro[4.5]dec-7-yl)-2-oxo-ethyl]-2-methyl-propionamide L-malate salt], the aqueous solubility result in series [4] was “increased aqueous solubility”.

Consider `CN1C[C@@H](c2ccccc2)[C@@]2(CCCN(C(=O)[C@@H](COCc3ccccc3)NC(=O)C(C)(C)N)C2)C1=O` (single isomer, unassigned) [Example 1.0(ii)], for which the Emax worked out at 100% in series [1], 141% in series [2] and 66% in series [3] (Rattus norvegicus). The same molecule returned an EC50 in series [3] (Rattus norvegicus) of 13 nM.

Take `CC(C)N1CC(c2ccccc2)C2(CCCN(C(=O)[C@@H](COCc3ccccc3)NC(=O)C(C)(C)N)C2)C1=O` (single isomer, unassigned) [Example 1.5]: the figures for the Emax in series [1], in series [2] and in series [3] (Rattus norvegicus) were 96%, 195% and 80%, respectively. For the same molecule, the EC50 in series [3] was 35 nM.

Take `CN(C)C(=O)CN1CC(c2ccccc2)C2(CCCN(C(=O)[C@@H](COCc3ccccc3)NC(=O)C(C)(C)N)C2)C1=O` (single isomer, unassigned) [Example 1.16]: the Emax in series [1] is 101%; in series [2] it was 210%; in series [3] (Rattus norvegicus), 124%. The same molecule displayed an EC50 in series [3] (Rattus norvegicus) of 13 nM.

`CN1CC(c2ccccc2)C2(CCCN(C(=O)[C@@H](COCc3ccccc3)NC(=O)C(C)(C)N)C2)C1=O` (single isomer, unassigned) [Example 1.20]: the Emax in series [1] amounted to 99%. In addition, in series [2], the “hGHS-R1a cAMP assay Emax/%” value turned out to be 169%. In addition, in series [3], the EC50 was 393 nM and the Emax/% was 39%.

For `CC(C)(C)CN1CC(c2ccccc2)C2(CCCN(C(=O)[C@@H](COCc3ccccc3)NC(=O)C(C)(C)N)C2)C1=O` (single isomer, unassigned) [Example 1.40], the figures for the Emax in series [1], in series [2] and in series [3] (Rattus norvegicus) were 86%, 164% and 117%, respectively. In series [3] (Rattus norvegicus), this molecule returned an EC50 of 59 nM.

In the case of `CN1C(=O)C2(CCCN(C(=O)[C@@H](COCc3ccccc3)NC(=O)C(C)(C)N)C2)C1c1ccccc1` (single isomer, unassigned) [Example 2.0(ii)], the Emax is 99% in series [1], 193% in series [2] and 63% in series [3] (Rattus norvegicus). Besides, the concentration giving a half-maximal response (EC50) in series [3] is 17 nM.
